Source: patent US11198741B2, “Medicines for topic use based on sulfated hyaluronic acid as activating or inhibiting agent of the cytokine activity” (Fidia Farmaceutici S.p.A., priority 2009, dated 2021)

Columns and labels:
TNF receptor = assay: Inhibition of the binding of 125I-TNF to its receptor in U937 cells (Radioligand Binding); set-up: species or system human; conditions: 125I-TNF 0.028 nM, sample 1 mg/ml, 4° C. 3 hours, medium and low MW
Text: These experiments were effected to evaluate the effectiveness of the samples tested (prepared according to Examples 1-4) on the capacity of inhibiting the binding of TNF to its receptor expressed by cells of the I.S. normally used in vitro for this type of experiment, carried out with iodinated cytokine components for an evaluation in Radioligand Binding assays. The experimental procedure was effected as described in Baglioni C. et al., J Biol Chem, 1985, 260:13395-13397. In short, the line of human histiocytes of the lymphoma U937 was used, with characteristics of monocytes sensitive to the cytotoxic activity of TNF, expressing its relative receptor. […] At the end of the incubation, the cells were centrifuged with dibutylphthalate/dinonylphthalate 2/1 and the pellet obtained was counted in a γ-counter.

fibrin clot = target: T1, fibrin clot (Homo sapiens, UniProt P02671+P02675+P02679); assay: In vitro fibrinolytic activity: dissolution of fibrin clot in coagulated plasma (absorbance at 405 nm); assay type: biochemical; conditions: 37° C.
T1 sequence (P02671 20-644 isoform P02671-2 limits assumed): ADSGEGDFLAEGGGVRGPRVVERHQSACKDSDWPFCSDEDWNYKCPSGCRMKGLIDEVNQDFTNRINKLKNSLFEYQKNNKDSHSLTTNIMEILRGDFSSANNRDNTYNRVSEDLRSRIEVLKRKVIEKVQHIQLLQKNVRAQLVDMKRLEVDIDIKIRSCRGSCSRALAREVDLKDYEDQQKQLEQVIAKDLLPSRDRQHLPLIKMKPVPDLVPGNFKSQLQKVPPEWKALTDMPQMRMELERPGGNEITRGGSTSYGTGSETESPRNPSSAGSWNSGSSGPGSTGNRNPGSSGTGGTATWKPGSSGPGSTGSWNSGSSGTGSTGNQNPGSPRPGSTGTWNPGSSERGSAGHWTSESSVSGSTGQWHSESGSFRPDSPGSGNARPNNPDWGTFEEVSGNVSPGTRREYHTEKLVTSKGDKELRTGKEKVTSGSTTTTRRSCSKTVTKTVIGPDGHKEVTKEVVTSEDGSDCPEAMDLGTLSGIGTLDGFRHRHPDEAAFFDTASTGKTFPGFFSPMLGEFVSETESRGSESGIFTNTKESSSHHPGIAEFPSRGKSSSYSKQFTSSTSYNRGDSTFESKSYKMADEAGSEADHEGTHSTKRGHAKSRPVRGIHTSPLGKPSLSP
T1 sequence (P02675 45-491 limits assumed): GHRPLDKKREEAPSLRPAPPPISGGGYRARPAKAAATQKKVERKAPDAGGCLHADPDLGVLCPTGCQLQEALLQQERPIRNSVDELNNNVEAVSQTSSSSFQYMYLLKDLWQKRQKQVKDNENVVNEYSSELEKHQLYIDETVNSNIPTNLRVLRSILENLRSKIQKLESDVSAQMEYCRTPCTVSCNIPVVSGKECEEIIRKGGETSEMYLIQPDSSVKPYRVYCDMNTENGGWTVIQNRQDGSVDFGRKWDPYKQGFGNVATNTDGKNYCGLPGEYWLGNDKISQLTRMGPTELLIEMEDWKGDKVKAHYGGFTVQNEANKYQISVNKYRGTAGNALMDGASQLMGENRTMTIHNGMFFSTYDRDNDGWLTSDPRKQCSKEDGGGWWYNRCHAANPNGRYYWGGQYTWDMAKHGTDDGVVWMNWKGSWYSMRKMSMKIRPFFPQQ
T1 sequence (P02679 27-437 isoform P02679-2 limits assumed): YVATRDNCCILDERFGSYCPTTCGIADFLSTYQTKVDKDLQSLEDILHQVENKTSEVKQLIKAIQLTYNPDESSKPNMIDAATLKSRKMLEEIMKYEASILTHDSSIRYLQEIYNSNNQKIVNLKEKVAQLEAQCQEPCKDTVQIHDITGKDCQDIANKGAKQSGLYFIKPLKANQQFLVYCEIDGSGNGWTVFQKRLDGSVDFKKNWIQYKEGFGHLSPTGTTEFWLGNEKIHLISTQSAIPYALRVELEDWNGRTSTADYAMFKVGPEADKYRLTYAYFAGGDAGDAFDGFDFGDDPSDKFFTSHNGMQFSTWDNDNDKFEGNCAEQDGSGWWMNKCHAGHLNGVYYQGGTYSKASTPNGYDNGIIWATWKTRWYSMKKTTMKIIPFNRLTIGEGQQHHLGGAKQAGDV
Description: The evaluation of the fibrinolytic properties of the products subjected to the test was compared with the acknowledged fibrinolytic activity of the plasmin. In particular, the dissolution rate of the fibrin network and formation of soluble products of the fibrin degradation (FDP), was evaluated.
In order to test the fibrinolytic effectiveness of the products subjected to testing, the blood samples were distributed in various test-tubes in which the clot formation was induced.
The formation of FDP was then evaluated after the addition of:
The freshly removed blood samples were distributed in various test-tubes containing sodium citrate in a ratio of 9:1. The test-tubes were immediately centrifuged at 3,000 rpm for 5 minutes. The plasma obtained was transferred to a new test-tube and immediately used for effecting the FDP evaluation.
Thrombin (300 mU/ml), preheated to 37° C. was added to the plasma samples, as activator of the fibrinogen in inducing the formation of the clot.
The following were added to the different cuvettes containing the fibrin clot:
a plasmin solution 0.5 mU, 5 mU, 50 mU, 500 mU and 1 U
solutions of HAS3 at concentrations of 25 mg/ml, 50 mg/ml, 100 mg/ml, 150 mg/ml and 200 mg/ml.
The absorbance variation at 405 nm for 60 sec. was evaluated spectrophotometrically for each cuvette. The reaction was left to proceed until the complete dissolution of the clot.
Coagulated plasma, plasmin solution and a solution of HAS3 200 KD and HAS3 20 KD were mixed in a ratio of 1:1 v/v and maintained at an operating temperature of 37° C.

Substance: sulfated hyaluronic acid degree 3 [HAS3]
- inhibition of the binding of TNF to its receptor (TNF receptor): 100%
- fibrinolytic activity (expressed in mU equivalents of Plasmin) (fibrin clot; 25 mg/ml): 0.5 mU
- fibrinolytic activity (expressed in mU equivalents of Plasmin) (fibrin clot; 50 mg/ml): 3 mU
- fibrinolytic activity (expressed in mU equivalents of Plasmin) (fibrin clot; 100 mg/ml): 10 mU
- fibrinolytic activity (expressed in mU equivalents of Plasmin) (fibrin clot; 150 mg/ml): 50 mU
- fibrinolytic activity (expressed in equivalents of Plasmin) (fibrin clot; 200 mg/ml): 1.1 U
